According to patent US9593140B2, “Antibacterial tylosin derivatives and methods for their preparation” (Bayer Intellectual Property GmbH, priority 2011, dated 2017):
Converted amounts (≈) assume the structure as drawn.

How the values were obtained:
Assay type in all cases: cell-based
[1] = tested on: Mannhemia hemolytica KB345; assay: Paper disc assay, M. hemolytica KB345 (Tilmicosin-sensitivity strain); conditions: Table 2; for zone of inhibition at 3 mg/disc / zone of inhibition at 10 mg/disc / zone of inhibition at 30 mg/disc / zone of inhibition at 100 mg/disc / zone of inhibition at 1 mg/disc: 24 h; for zone of inhibition at 3 mg/disc: 3 mg/6 mm disk; for zone of inhibition at 1 mg/disc: 1 mg/6 mm disk
Procedure: (§1) (1) Antibacterial Activities Against Mannheimia and Pasteurella were Determined by the Following Steps:
(§2) 1) M. hemolytica KB345 (Tilmicosin-sensitivity strain) and M. hemolytica KB346 (Tilmicosin-low sensitivity strain) were provided. KB 345 strain stored at −80° C. was seeded to BHIB agar medium (10 mL) by using Microbank beads (Pro-Lab) and platinum nail. After statically incubating the KB 345 strain for 24 hours at 37° C., it was seeded to maintaining slant BHIB agar medium (7 mL) by using platinum loop, further statically incubated for 24 hours at 37° C. to obtain slant. One platinum loop of KB 345 strain stored at the slant was inoculated into a large test tube charged with BHIB liquid medium (10 mL) and then incubated for 24 hours at 37° C. with shaking.
(§3) 2) A paper disc (ADVANTEC, Φ:6 mm) was impregnated with a solution of test compound and dried under reduced pressure.
(§4) 3) To a melted BHIB agar medium was inoculated 1% of the broth obtained from step 1) above to prepare a test plate. After the medium set, the paper disc prepared in step 2) above was put on the plate and it was incubated at 37° C.
(§5) 4) After one day, the inhibition zone diameter and clarity (A to E) were determined.

[2] = tested on: Mannhemia hemolytica KB346; assay: Paper disc assay, M. hemolytica KB346 (Tilmicosin-low sensitivity strain); conditions: Table 3
Procedure: as §1, §2, §3, §4, §5
For KB346 strain, the same procedures were repeated.

[3] = tested on: Mannheimia Haemolytica, 3 isolates; assay: Minimal inhibitory concentrations, cattle pathogen isolates; conditions: Mannheimia haemolytica
Procedure: (§6) The antibacterial activity by the compounds of the present invention may be measured using a number of assays available in the art. […] Minimal inhibitory concentrations (MICs) were determined against the most prevalent pathogens in cattle (Mannheimia Haemolytica, 3 isolates) and swine (A. pleuropneumoniae, 6 isolates).The results are summarized in Table 7.

[4] = tested on: A. pleuropneumoniae, 6 isolates; assay: Minimal inhibitory concentrations, swine pathogen isolates
Procedure: as §6

[5] = tested on: Bacillus subtilis ATCC6633; assay: Paper disc assay, Bacillus subtilis (S)
Procedure: (§7) (2) Antibacterial activities against other bacteria were determined with Micrococcus luteus ATCC9341 (1), Bacillus subtilis […] (s), Escherichia coli NIHJ (c), Xanthomonas campestris KB88 (X), Mucor racemosus IFO 4581 (Mu) and Candida albicans ATCC 64548 (Ca).
(§8) Bacillus subtilis ATCC6633 was incubated in Davis synthetic medium and then the seed broth was combined with the medium in the ratio of 1:99 to obtain a test plate. Micrococcus luteus ATCC9341, Escherichia coli NIHJ and Xanthomonas campestris KB88 were respectively incubated in Nutrient agar medium and inoculated at 0.2%, 0.5% and 1.0%. Mucor racemosus IFO 4581 and Candida albicans ATCC 64548 were respectively incubated in GY agar medium and then inoculated at 0.3% and 0.2%.
(§9) A paper disc (ADVANTEC, Φ:6 mm) was impregnated with a solution of test compound and dried under reduced pressure. The paper disc was put on the test plate and it was incubated for 24 hours at 37° C. After incubation, the inhibition zone diameter and clarity (A to E) were determined.

[6] = tested on: Micrococcus luteus ATCC9341; assay: Paper disc assay, Micrococcus luteus (l)
Procedure: as §7, §8, §9

[7] = tested on: Xanthomonas campestris KB88; assay: Paper disc assay, Xanthomonas campestris (X)
Procedure: as §7, §8, §9

Structure (SMILES)	Inhibition zone (mm) ([1]; 30 mg/6 mm disk)	Inhibition zone (mm) ([2]; 30 mg/6 mm disk)	Inhibition zone (mm) ([2]; 100 mg/6 mm disk)	zone of inhibition at 3 mg/disc [1]	zone of inhibition at 10 mg/disc ([1]; 10 mg/6 mm disk)	zone of inhibition at 30 mg/disc ([1]; 30 mg/6 mm disk)	zone of inhibition at 100 mg/disc ([1]; 100 mg/6 mm disk)	Inhibition zone (mm) ([5]; 0.1 mg/6 mm disc)	Inhibition zone (mm) ([5]; 1 mg/6 mm disc)	Inhibition zone (mm) ([5]; 10 mg/6 mm disc)	Inhibition zone (mm) ([6]; 0.1 mg/6 mm disc)	Inhibition zone (mm) ([6]; 1 mg/6 mm disc)	Inhibition zone (mm) ([6]; 10 mg/6 mm disc)	Inhibition zone (mm) ([7]; 0.1 mg/6 mm disc)	Inhibition zone (mm) ([7]; 1 mg/6 mm disc)	Inhibition zone (mm) ([7]; 10 mg/6 mm disc)	zone of inhibition at 1 mg/disc [1]	other results
CC[C@H]1OC(=O)C[C@@H](O)[C@H](C)[C@@H](O[C@@H]2O[C@H](C)[C@@H](O)[C@H](N(C)C)[C@H]2O)[C@@H](CCCl)C[C@@H](C)C(=O)/C=C/C(C)=C/[C@@H]1CO[C@@H]1O[C@H](C)[C@@H](O)[C@@H](OC)[C@H]1OC [YT8, 20-chloro-20-deoxodesmycosin]	18.0 mm	11.0 mm	14.5 mm	–	–	–	–	–	–	–	–	–	–	–	–	–	–	Inhibition zone (mm) ([1]; 10 mg/6 mm disk): 12.5 mm; Inhibition zone (mm) ([1]; 100 mg/6 mm disk): 20.0 mm
CC[C@H]1OC(=O)C[C@@H](O)[C@H](C)[C@@H](O[C@@H]2O[C@H](C)C(O)C(N(C)C)C2O)[C@@H](CC=O)C[C@@H](C)C(=O)/C=C/C(C)=C/[C@@H]1Cn1cc(-c2ccc(-c3ccccc3)cc2)nn1 (stereo partly drawn) [YT104, 23-(4-biphenyl-1H-1,2,3-triazol-1-yl)-23-Deoxy-5-O-mycaminosyltylonolide]	–	–	–	–	–	–	–	–	–	–	–	–	–	–	–	–	–	MIC ([3]; M. haemolytica isolate 1): 8 µg/mL (≈ 9.99 µM); MIC ([3]; M. haemolytica isolate 2): 4 µg/mL (≈ 4.99 µM); MIC ([3]; M. haemolytica isolate 3): 8 µg/mL (≈ 9.99 µM); MIC ([4]; Actinobacillus pleuropneumoniae, pleuropneumoniae isolate 1): > 16 µg/mL; MICs ([4]; pleuropneumoniae isolate 2): >16 µg/mL; MICs ([4]; pleuropneumoniae isolate 3): >16 µg/mL; MICs ([4]; pleuropneumoniae isolate 4): >16 µg/mL; MICs ([4]; pleuropneumoniae isolate 5): >16 µg/mL; MICs ([4]; pleuropneumoniae isolate 6): >16 µg/mL
CC[C@H]1OC(=O)C[C@@H](O)[C@H](C)[C@@H](O[C@@H]2OC(C)[C@@H](O)C(N(C)C)C2O)[C@@H](CCn2cc(CCCCCl)nn2)C[C@@H](C)C(=O)/C=C/C(C)=C/[C@@H]1CO[C@@H]1OC(C)[C@@H](O)C(OC)C1OC (stereo partly drawn) [YT19, 20-(4-(4-chlorobutyl)-1H-1,2,3-triazol-1-yl)-20-deoxodesmycosin]	–	–	–	14 mm	16 mm	18 mm	21 mm	7 mm	10.5 mm	15 mm	13 mm	19 mm	26 mm	7 mm	14.5 mm	23 mm	–	–
CC[C@H]1OC(=O)C[C@@H](O)[C@H](C)[C@@H](O[C@@H]2OC(C)[C@@H](O)C(N(C)C)C2O)[C@@H](CCn2cc(-c3ccccc3)nn2)C[C@@H](C)C(=O)/C=C/C(C)=C/[C@@H]1CO[C@@H]1OC(C)[C@@H](O)C(OC)C1OC (stereo partly drawn) [YT13, 20-(4-phenyl-1H-1,2,3-triazol-1-yl)-20-deoxodesmycosin]	–	–	–	15 mm	16 mm	18 mm	21 mm	9.5 mm	12 mm	15.5 mm	15 mm	21.5 mm	27.5 mm	8 mm	17 mm	23.5 mm	11 mm	–
CC[C@H]1OC(=O)C[C@@H](O)[C@H](C)[C@@H](O[C@@H]2O[C@H](C)[C@@H](O)[C@H](N(C)C)[C@H]2O)[C@@H](CC=O)C[C@@H](C)C(=O)/C=C/C(C)=C/[C@@H]1CO[C@@H]1O[C@H](C)[C@@H](O)[C@@H](OC)[C@H]1OC [YT6, Desmycosin]	10.5 mm	17.5 mm	21.0 mm	–	–	–	–	–	–	–	–	–	–	–	–	–	–	Inhibition zone (mm) ([2]; 3 mg/6 mm disk): 8.5 mm; Inhibition zone (mm) ([2]; 10 mg/6 mm disk): 13.5 mm
CC[C@H]1OC(=O)C[C@@H](O)[C@H](C)[C@@H](O[C@@H]2OC(C)[C@@H](O)C(N(C)C)C2O)[C@@H](CCn2cc(-c3ccccn3)nn2)C[C@@H](C)C(=O)/C=C/C(C)=C/[C@@H]1CO[C@@H]1OC(C)[C@@H](O)C(OC)C1OC (stereo partly drawn) [YT12, 20-(4-(pyridine-2-yl)-1H-1,2,3-triazol-1-yl)-20-deoxodesmycosin]	–	–	–	13 mm	17 mm	19 mm	22 mm	7 mm	12.5 mm	14 mm	12 mm	18.5 mm	25 mm	7 mm	12.5 mm	27 mm	9 mm	–
